Reference: US9801917B2, “Composition for improving blood sugar metabolism” (SUNSTAR INC., priority 2013, dated 2017)

Legend:
[1] = tested on: mouse skeletal myotube cell line (C2C12 cells); assay: Measurement of sugar uptake-promoting activity (6-NBDG uptake) using skeletal myotube cells; assay type: cell-based; details: for sugar uptake-promoting activity (in words): 0.01 mass %, compared with extract C
Method: Mouse skeletal myoblasts (C2C12 cells) were cultured in high-glucose DMEM (5790), and the cells were seeded and cultured in a black microtiter plate (produced by Falcon) at a concentration of 5000 cells/200 μL/well. The cells differentiated into myotubes were used for this experiment. Extract A and extract C obtained in the above Production Example 1 and adjusted to final concentrations of 0.02% and 0.05% were used as samples (Examples 2-1 to 2-4). A medium without any addition (Comparative Example 2-1) was used as a negative control. A medium containing insulin (10 nM) (Comparative Example 2-2) was used as a positive control.
On the day of the experiment, after the media were replaced with low-glucose DMEM (6047), starvation was performed. The media were then replaced with media containing the samples of Examples 2-1 to 2-4 and Comparative Examples 2-1 to 2-2 dissolved therein, and incubation was performed for 60 minutes. After the treatment, the media were removed and replaced with low-glucose DMEM containing 100 μM of a fluorescently labeled nonhydrolyzable sugar analog, 6-(N-(7-nitrobenz-2-oxa-1,3-diazol-4-yl)amino)-6-deoxyglucose (6-NBDG; produced by Invitrogen) dissolved therein. After the reaction was allowed to proceed for 30 minutes, the medium was removed. After washing with PBS, the fluorescence was measured at 444 nm/538 nm emission using a fluorescent plate reader.
The sugar uptake-promoting activity, in skeletal myotube cells, of each of extract C (Example 3-1) obtained in the above Production Example 1, and fractions A to C and insoluble matter (Example 3-5) obtained in the above Production Example 2 (Examples 3-2 to 3-4) was measured in the same manner as in Test Example 1-2. Further, as in Test Example 1-2, a medium with no addition was used as a negative control (Comparative Example 3-1), and a medium containing insulin (10 nM) (Comparative Example 3-2) was used as a positive control. The samples of Examples 3-1 to 3-5 were adjusted to a final concentration of 0.02 mass %.
The sugar uptake-promoting activity, in skeletal myotube cells, of extract C obtained in the above Production Example 1 (Example 4-1) and seven compounds known to be contained in persimmon leaves (Example 4-2 to 4-8), i.e., kaempferol-3-O-glucoside, quercetin-3-O-glucoside, quercetin-3-O-galactoside, (+)-catechin, epigallocatechin gallate, rutin, and gallic acid was measured in the same manner as in Test Example 1-2. Further, as in Test Example 1-2, a medium with no addition was used as a negative control (Comparative Example 4-1), and a medium with insulin (10 nM) was used as a positive control (Comparative Example 4-2). The samples obtained in Example 4-1 to 4-8 were adjusted to a final concentration of 0.01 mass %.
The sugar uptake-promoting effects of extract C obtained in the above Production Example 1 (Example 5-1), fraction B obtained in the above Production Example 2 (Example 5-2), and fractions F to L (Examples 5-3 to 5-9) obtained in the above Production Example 3 on skeletal myotube cells were measured in the same manner as in Test Example 2. A medium with no addition was used as a negative control (Comparative Example 5-1), and media with insulin (10 nM) (Comparative Example 5-2), with insulin (100 nM) (Comparative Example 5-3), and with AICAR (final concentration: 3 mM) (Comparative Example 5-4) were used as positive controls. The samples of Examples 5-1 to 5-9 were adjusted to a final concentration of 0.02 mass %. […]

[2] = tested on: AMP kinase; assay: Measurement of AMP kinase phosphorylation activity (Western blot pAMPK/tAMPK) in C2C12 cells; assay type: cell-based, mouse; details: Test Example 1-1; positive control, final concentration 2 mM; relative value, negative control = 1
Method: Persimmon leaf extracts A to E (powders) that had been dissolved in media to a final concentration of 0.02% were used as samples (Examples 1-1 to 1-5). A medium without any addition was used as a negative control (Comparative Example 1-1). A medium containing AICAR (final concentration: 2 mM) was used as a positive control (Comparative Example 1-2). Subsequently, a mouse skeletal myotube cell line (C2C12 cells) was seeded onto a 6-well cell culture plate and cultured in a DMEM medium containing 10% fetal bovine serum and a 1% antibacterial agent at 37° C., 5% carbon dioxide for 3 days.
When the cells became confluent, the medium was replaced with a DMEM medium containing 1% fetal bovine serum, and the cells were further cultured and fully differentiated. After the medium was again replaced with a fresh medium, the samples of Examples 1-1 to 1-5 and Comparative Examples 1-1 to 1-2 were added, and the cells were cultured at 37° C., 5% carbon dioxide. […]
The cell lysate was sonicated and then centrifuged to obtain a supernatant. […] The protein concentration of each supernatant was measured. […]
Western blotting was performed in the following manner. […] Chemiluminescence was detected using a CCD camera imager (produced by GE Healthcare). The degree of the activity was expressed as a relative value with the value of the negative control being defined as 1.

[3] = Test Example 3, final concentration 0.01 mass %, control = 1.00

Compound | Relative fluorescence intensity [1, 3] | sugar uptake-promoting activity (in words) ([1]; Test Example 3) | other results
Oc1cc(O)c2c(c1)O[C@H](c1ccc(O)c(O)c1)[C@@H](O)C2 [(+)-catechin] | 1.09 |  | 
NC(=O)c1ncn([C@@H]2O[C@H](CO)[C@@H](O)[C@H]2O)c1N [AICAR] |  |  | Relative fluorescence intensity ([1]; Test Example 4, positive control 3 mM, control = 1.00): 1.96; pAMPK/tAMPK ratio [2]: 5.60
O=C(O[C@@H]1Cc2c(O)cc(O)cc2O[C@@H]1c1cc(O)c(O)c(O)c1)c1cc(O)c(O)c(O)c1 [Epigallocatechin gallate, epigallocatechin gallate] | 1.70 | as high as Example 4-1 | 
O=C(O)c1cc(O)c(O)c(O)c1 [Gallic acid, gallic acid] | 1.69 | as high as Example 4-1 | 
O=c1c(O[C@@H]2O[C@H](CO)[C@@H](O)[C@H](O)[C@H]2O)c(-c2ccc(O)cc2)oc2cc(O)cc(O)c12 [Kaempferol-3-glucoside, kaempferol-3-O-glucoside] | 0.91 |  | 
O=c1c(O[C@@H]2O[C@H](CO)[C@H](O)[C@H](O)[C@H]2O)c(-c2ccc(O)c(O)c2)oc2cc(O)cc(O)c12 [Quercetin-3-galactoside, quercetin-3-O-galactoside] | 0.70 |  | 
O=c1c(O[C@@H]2O[C@H](CO)[C@@H](O)[C@H](O)[C@H]2O)c(-c2ccc(O)c(O)c2)oc2cc(O)cc(O)c12 [Quercetin-3-glucoside, quercetin-3-O-glucoside] | 2.26 | as high as Example 4-1 | 
C[C@@H]1O[C@@H](OC[C@H]2O[C@@H](Oc3c(-c4ccc(O)c(O)c4)oc4cc(O)cc(O)c4c3=O)[C@H](O)[C@@H](O)[C@@H]2O)[C@H](O)[C@H](O)[C@H]1O [Rutin, rutin] | 0.91 |  | 
insulin |  |  | Relative fluorescence intensity ([1]; Test Example 1-2, positive control 10 nM, no addition = 1.00): 1.32; Relative fluorescence intensity ([1]; Test Example 2, positive control 10 nM, no addition = 1.00): 1.25; Relative fluorescence intensity ([1]; Test Example 3, positive control 10 nM, control = 1.00): 1.43; Relative fluorescence intensity ([1]; Test Example 4, positive control 10 nM, control = 1.00): 1.62; Relative fluorescence intensity ([1]; Test Example 4, positive control 100 nM, control = 1.00): 1.74
